Data reported in ChEMBL document CHEMBL4184149, “Discovery and process development of a novel TACE inhibitor for the topical treatment of psoriasis” (Bioorg Med Chem, 2018).
≈ marks a conversion by molar mass, not a printed value. Calls of active or inactive are those of the source. No cut-off for these calls is given here.

Assays:
[1] = target: 72 kDa type IV collagenase (Homo sapiens, UniProt P08253); experiment: Inhibition of MMP2 (unknown origin)
Mus musculus [2] = experiment: Antiinflammatory activity in topically applied oxazolone-induced chronic skin inflammation hairless SKH1 mouse model assessed as decrease in TNFalpha secretion applied topically for 10 days in combination with oxazolone; assay type: functional, organism-based
Salmonella typhimurium [3] = experiment: Mutagenicity in Salmonella typhimurium TA98 in absence of rat S9 fraction by Ames test; assay type: toxicity, organism-based; conditions: salmonella enterica subsp. enterica serovar typhimurium
TK6 [4] = experiment: Genotoxicity in p53-competent human TK6 cells in absence of Sprague-Dawley rat S9 fraction by GADD45alpha GFP reporter assay; assay type: toxicity, cell-based
Mus musculus [5] = experiment: Antiinflammatory activity in topically applied oxazolone-induced chronic skin inflammation hairless SKH1 mouse model assessed as decrease in skin lesions applied topically for 10 days in combination with oxazolone; assay type: functional, organism-based
Interstitial collagenase = target: T1, Interstitial collagenase (Homo sapiens, UniProt P03956); experiment: Inhibition of recombinant human MMP1 catalytic domain using Mca-Pro-Leu-Gly-Leu-Dpa-Ala-Arg-NH2 as substrate after 10 mins by fluorescence assay
T1 sequence (P03956 whole entry): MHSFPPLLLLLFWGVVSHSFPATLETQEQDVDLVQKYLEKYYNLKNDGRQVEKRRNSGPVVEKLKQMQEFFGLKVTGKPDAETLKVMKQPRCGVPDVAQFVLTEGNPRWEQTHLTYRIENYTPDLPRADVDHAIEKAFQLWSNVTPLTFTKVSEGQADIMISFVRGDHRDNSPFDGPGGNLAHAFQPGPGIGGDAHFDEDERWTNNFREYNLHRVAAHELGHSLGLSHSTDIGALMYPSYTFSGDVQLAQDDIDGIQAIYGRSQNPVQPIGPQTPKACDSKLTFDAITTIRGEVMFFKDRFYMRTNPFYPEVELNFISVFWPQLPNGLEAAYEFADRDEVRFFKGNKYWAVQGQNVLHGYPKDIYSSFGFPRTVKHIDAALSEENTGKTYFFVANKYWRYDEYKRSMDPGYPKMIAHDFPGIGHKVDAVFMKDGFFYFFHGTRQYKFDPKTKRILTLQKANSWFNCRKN

TK6 [6] = experiment: Genotoxicity in p53-competent human TK6 cells in presence of Sprague-Dawley rat S9 fraction by GADD45alpha GFP reporter assay; assay type: toxicity, cell-based
Salmonella typhimurium [7] = experiment: Mutagenicity in Salmonella typhimurium TA98 in presence of rat S9 fraction by Ames test; assay type: toxicity, organism-based; conditions: salmonella enterica subsp. enterica serovar typhimurium
Mus musculus [8] = experiment: Antiinflammatory activity in topically applied oxazolone-induced chronic skin inflammation hairless SKH1 mouse model assessed as decrease in epidermis thickening applied topically for 10 days in combination with oxazolone; assay type: functional, organism-based
Salmonella typhimurium [9] = experiment: Mutagenicity in Salmonella typhimurium TA100 in absence of rat S9 fraction by Ames test; assay type: toxicity, organism-based; conditions: salmonella enterica subsp. enterica serovar typhimurium
[10] = target: Disintegrin and metalloproteinase domain-containing protein 17 (Homo sapiens, UniProt P78536); experiment: Inhibition of TACE in NHEK assessed as reduction in LPS/TPA-stimulated TNFalpha production preincubated for 1 hr followed by LPS/TPA stimulation for 24 hrs by HTRF assay
Sequence of Disintegrin and metalloproteinase domain-containing protein 17 (P78536 whole entry, the tested form may be a part): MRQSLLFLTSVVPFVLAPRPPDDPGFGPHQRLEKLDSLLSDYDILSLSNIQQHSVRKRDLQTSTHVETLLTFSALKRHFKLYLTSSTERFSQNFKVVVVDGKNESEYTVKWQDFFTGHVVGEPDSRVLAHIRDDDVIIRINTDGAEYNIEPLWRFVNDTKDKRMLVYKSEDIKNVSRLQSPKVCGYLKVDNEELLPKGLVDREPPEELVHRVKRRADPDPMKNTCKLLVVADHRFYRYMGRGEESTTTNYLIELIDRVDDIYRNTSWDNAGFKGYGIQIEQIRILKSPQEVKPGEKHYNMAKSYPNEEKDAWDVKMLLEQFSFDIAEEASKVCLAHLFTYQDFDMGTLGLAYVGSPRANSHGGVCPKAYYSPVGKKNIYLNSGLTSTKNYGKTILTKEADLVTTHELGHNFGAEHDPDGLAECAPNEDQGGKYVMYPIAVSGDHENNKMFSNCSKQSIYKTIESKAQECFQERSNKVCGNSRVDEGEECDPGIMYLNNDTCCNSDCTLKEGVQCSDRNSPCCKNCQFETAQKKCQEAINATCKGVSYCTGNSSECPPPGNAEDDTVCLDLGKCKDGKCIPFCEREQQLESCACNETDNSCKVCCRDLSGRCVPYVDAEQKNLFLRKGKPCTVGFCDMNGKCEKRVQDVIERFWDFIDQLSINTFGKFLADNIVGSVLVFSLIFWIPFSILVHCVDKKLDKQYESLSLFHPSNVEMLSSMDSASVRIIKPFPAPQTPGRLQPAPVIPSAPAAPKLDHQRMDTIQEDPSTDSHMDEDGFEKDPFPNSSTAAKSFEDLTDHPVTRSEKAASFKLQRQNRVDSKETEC

[11] = Half life in human neonatal keratinocytes at 1 uM by LC-MS/MS analysis; assay type: ADME, cell-based
TK6 [12] = experiment: Genotoxicity in human TK6 cells in presence of rat S9 fraction by Giemsa staining based micronucleus assay; assay type: toxicity, cell-based
[13] = Solubility of the compound in propylene glycol/ethanol96 at 30 mg/ml after 24 hrs by UV-spectrometric analysis; assay type: physicochemical; conditions: propylene glycol/ethanol96

Sequence of 72 kDa type IV collagenase (P08253 whole entry): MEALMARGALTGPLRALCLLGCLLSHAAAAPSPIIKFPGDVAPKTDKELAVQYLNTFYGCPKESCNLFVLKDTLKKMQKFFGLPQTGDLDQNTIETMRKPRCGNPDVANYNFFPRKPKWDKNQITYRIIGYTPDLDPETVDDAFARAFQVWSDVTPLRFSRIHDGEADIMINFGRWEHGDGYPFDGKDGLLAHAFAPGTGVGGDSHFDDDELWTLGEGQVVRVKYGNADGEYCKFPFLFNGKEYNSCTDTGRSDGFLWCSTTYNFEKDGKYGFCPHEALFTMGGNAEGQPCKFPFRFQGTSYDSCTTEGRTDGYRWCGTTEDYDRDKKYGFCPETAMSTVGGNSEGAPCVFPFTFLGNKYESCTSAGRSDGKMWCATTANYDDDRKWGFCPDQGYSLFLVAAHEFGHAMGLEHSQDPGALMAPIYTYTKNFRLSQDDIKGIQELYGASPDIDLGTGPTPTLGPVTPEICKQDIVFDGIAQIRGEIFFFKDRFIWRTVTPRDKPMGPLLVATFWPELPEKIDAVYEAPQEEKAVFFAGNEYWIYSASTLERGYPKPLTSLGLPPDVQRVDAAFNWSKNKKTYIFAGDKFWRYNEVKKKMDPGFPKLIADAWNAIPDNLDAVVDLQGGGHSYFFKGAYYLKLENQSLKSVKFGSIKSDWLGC

**Q.** With Cc1cc(COc2ccc(S(=O)(=O)N(C)C3(C(=O)NO)CN(C(=O)C(C)C)C3)cc2)c2ccccc2n1 as the molecule, how does the IC50 [1] read?
**A.** 0.89 µM

**Q.** What about the Activity (Mus musculus [2]) of the same molecule?
**A.** Active

**Q.** What about the Activity (Salmonella typhimurium [3]) of the same molecule?
**A.** Non-Toxic

**Q.** What about the Activity (TK6 [4]) of the same molecule?
**A.** Non-Toxic

**Q.** And the Activity (Mus musculus [5])?
**A.** Dose-dependent effect

**Q.** What about the IC50 (Interstitial collagenase) of the same molecule?
**A.** 4.5 µM

**Q.** What about the Activity (TK6 [6]) of the same molecule?
**A.** Non-Toxic

**Q.** And the Activity (Salmonella typhimurium [7])?
**A.** Non-Toxic

**Q.** What about the Activity (Mus musculus [8]) of the same molecule?
**A.** Active

**Q.** What about the Activity (Salmonella typhimurium [9]) of the same molecule?
**A.** Non-Toxic

**Q.** What about the IC50 [10] of the same molecule?
**A.** 0.003 µM

**Q.** What about the half-life at 1 µM [11] of the same molecule?
**A.** > 24 h

**Q.** What about the Activity (TK6 [12]) of the same molecule?
**A.** Non-Toxic

**Q.** And the solubility at 24 h [13]?
**A.** 56 to 57 mM (≈ 29.5 to 30 mg/mL)

**Q.** For Cc1cc(COc2ccc(S(=O)(=O)N(C)C3(C(=O)NO)CN(C(=O)CC(C)C)C3)cc2)c2ccccc2n1, which IC50 [1] is on record?
**A.** 1 µM

**Q.** And the Activity (Salmonella typhimurium [3])?
**A.** Non-Toxic

**Q.** And the Activity (TK6 [4])?
**A.** Non-Toxic

**Q.** What about the IC50 (Interstitial collagenase) of the same molecule?
**A.** 4.6 µM

**Q.** What about the Activity (TK6 [6]) of the same molecule?
**A.** Non-Toxic

**Q.** And the Activity (Salmonella typhimurium [7])?
**A.** Non-Toxic

**Q.** What about the Activity (Salmonella typhimurium [9]) of the same molecule?
**A.** Non-Toxic

**Q.** What about the IC50 [10] of the same molecule?
**A.** 0.02 µM

**Q.** And the half-life at 1 µM [11]?
**A.** > 24 h

**Q.** And the Activity (TK6 [12])?
**A.** Non-Toxic

**Q.** And the solubility at 24 h [13]?
**A.** 45 mM (≈ 24.3 mg/mL)
